The term IC50 denotes the concentration that gives 50% inhibition.

The target in this assay is T1, human CCR1 (Homo sapiens, UniProt P32246).
T1 sequence (P32246 1-355): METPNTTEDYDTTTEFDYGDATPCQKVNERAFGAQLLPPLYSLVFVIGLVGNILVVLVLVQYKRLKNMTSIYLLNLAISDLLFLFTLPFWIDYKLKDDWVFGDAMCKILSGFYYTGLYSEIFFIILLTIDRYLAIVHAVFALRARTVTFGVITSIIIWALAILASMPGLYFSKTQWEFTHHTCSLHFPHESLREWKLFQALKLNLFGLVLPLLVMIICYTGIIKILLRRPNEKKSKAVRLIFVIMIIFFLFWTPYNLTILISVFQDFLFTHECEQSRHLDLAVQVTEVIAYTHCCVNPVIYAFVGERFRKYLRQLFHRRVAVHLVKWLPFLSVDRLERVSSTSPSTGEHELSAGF
The assay can be described thus: CCR1 binding protocol (SPA, [125I]-MIP-1α displacement). The following applies: cell membrane expressing human CCR1, 0.1 nM [125I]-MIP-1α, 4 hours at ambient temperature; read-out: Relative potency (IC50). How it is done:
The following protocol was used to test compounds for CCR1 binding. A mixture, including scintillation proximity assay (SPA) beads and cell membrane expressing human CCR1, was prepared in assay buffer (130 mM NaCl+5 mM KCl+1 mM MnCl+50 mM Tris HCl at pH 7.4+0.1% bovine serum albumin (BSA)) at the ratio of 50 μg/ml membrane to 10 mg/ml SPA beads. 10 μl of the mixture was transferred to each well of a 384-well assay plate yielding a final concentration for the membrane and SPA beads of 0.5 μg/well and 100 μg/well, respectively
To generate different concentrations of the test compound, compound stocks were prepared using 10 step ½ log dilutions with a high concentration of 10 mM in DMSO and the lowest concentration being DMSO only without compound. An intermediate 40× dilution was then prepared in the assay buffer. The compound was then transferred at 10 μl/well to the assay plate. 0.5 nM [^125 I]-labeled macrophage inflammatory protein-1α (MIP-1α, an endogenous CCR1 ligand) in the assay buffer was transferred to the assay plate at 5 μl/well, for a final ligand concentration of 0.1 nM. The assay plate was then centrifuged at 2500 rpm for 2 minutes and incubated for 4 hours at ambient temperature, at which time the raw data was recorded using microbeta. The IC50 was then calculated using Graphpad Prism.
As for `Cc1onc(-c2ccccc2)c1NC(=O)N1CCC[C@@H]1c1ncnn1Cc1ccc(Cl)cc1` [Compound 62], the IC50 was under 50 nM.
For the molecule `Cc1cc(C(F)(F)F)ccc1NC(=O)N1CCC[C@@H]1c1ncnn1Cc1ccc(Cl)cc1` [Compound 63], the IC50 is under 50 nM.
The figure for `O=C(Nc1ccc(C(F)(F)F)cc1)N1CCC[C@@H]1c1ncnn1Cc1ccc(Cl)cc1` [Compound 64] is under 50 nM.
The figure for `O=C(N[C@H]1CCOc2cc(Cl)ccc21)N1CCC[C@@H]1c1ncnn1Cc1ccc(Cl)cc1` [Compound 65] is 50 to 500 nM; for `Cc1cc(Cl)cc(C)c1NC(=O)N1CCC[C@@H]1c1ncnn1Cc1ccc(Cl)cc1` [Compound 66] it is 50 to 500 nM; for `CSc1ccc(NC(=O)N2CCC[C@@H]2c2ncnn2Cc2ccc(Cl)cc2)cc1` [Compound 67] it is 50 to 500 nM.
To `O=C(Nc1ccc(Cl)cc1F)N1CCC[C@@H]1c1ncnn1Cc1ccc(Cl)cc1` [Compound 68] belongs 50 to 500 nM.
With `Cn1ncc(-c2ccccc2)c1NC(=O)N1CCC[C@@H]1c1ncnn1Cc1ccc(Cl)cc1` [Compound 69], the IC50 is 50 to 500 nM.
The figure for `O=C(Nc1ccc(C(F)(F)F)cc1Cl)N1CCC[C@@H]1c1ncnn1Cc1ccc(Cl)cc1` [Compound 70] is 50 to 500 nM; for `O=C(Nc1ccc2nonc2c1)N1CCC[C@@H]1c1ncnn1Cc1ccc(Cl)cc1` [Compound 71] it is 50 to 500 nM; for `N#Cc1ccc2c(c1)OCCC2NC(=O)N1CCC[C@@H]1c1ncnn1Cc1ccc(Cl)cc1` (some centres unmarked) [Compound 72] it is 50 to 500 nM.
With `O=C(Nc1ccc(SC(F)(F)F)cc1)N1CCC[C@@H]1c1ncnn1Cc1ccc(Cl)cc1` [Compound 74], the IC50 is 50 to 500 nM.
The figure for `CC(C)Cc1ccc([C@H](C)NC(=O)N2CCC[C@@H]2c2ncnn2Cc2ccc(Cl)cc2)cc1` [Compound 75] is 50 to 500 nM; for `CS(=O)(=O)c1ccc(NC(=O)N2CCC[C@@H]2c2ncnn2Cc2ccc(Cl)cc2)cc1` [Compound 76] it is 50 to 500 nM; for `CC1(C)CC[C@@H](NC(=O)N2CCC[C@@H]2c2ncnn2Cc2ccc(Cl)cc2)c2ccccc21` [Compound 77] it is 50 to 500 nM.
To `O=C(NC1CCS(=O)(=O)c2ccccc21)N1CCC[C@@H]1c1ncnn1Cc1ccc(Cl)cc1` (some centres unmarked) [Compound 78] belongs 500 to 5000 nM; to `CC1(C)CC[C@H](NC(=O)N2CCC[C@@H]2c2ncnn2Cc2ccc(Cl)cc2)c2ccccc21` [Compound 79], 500 to 5000 nM.
To `CC[C@H](NC(=O)N1CCC[C@@H]1c1ncnn1Cc1ccc(Cl)cc1)c1cc2ccccc2o1` [Compound 80] belongs under 50 nM; to `C[C@H](NC(=O)N1CCC[C@@H]1c1ncnn1Cc1ccc(Cl)cc1)c1cc2ccccc2o1` [Compound 81], under 50 nM.
Regarding `O=C(N[C@H]1CCCc2cc(C(F)(F)F)ccc21)N1CCC[C@@H]1c1ncnn1Cc1ccc(Cl)cc1` [Compound 82], the IC50 was under 50 nM.
As for `Cc1nc(-c2ccccc2)sc1NC(=O)N1CCC[C@@H]1c1ncnn1Cc1ccc(Cl)cc1` [Compound 83], the IC50 lay in the range of 50 to 500 nM.
Take `O=C(NC1CCCOc2ccc(Cl)cc21)N1CCC[C@@H]1c1ncnn1Cc1ccc(Cl)cc1` (some centres unmarked) [Compound 84]: the IC50 lay in the range of 50 to 500 nM.
To `CC1(C)CC(NC(=O)N2CCC[C@@H]2c2ncnn2Cc2ccc(Cl)cc2)c2ccccc2O1` (some centres unmarked) [Compound 85] belongs 50 to 500 nM; to `O=C(NC1CCc2cc(C(F)(F)F)ccc21)N1CCC[C@@H]1c1ncnn1Cc1ccc(Cl)cc1` (some centres unmarked) [Compound 86], 50 to 500 nM.
Regarding `O=C(NC1CCCOc2cccc(Cl)c21)N1CCC[C@@H]1c1ncnn1Cc1ccc(Cl)cc1` (some centres unmarked) [Compound 87], the IC50 was in the range of 50 to 500 nM.
The figure for `O=C(NC1CCCOc2cc(Cl)ccc21)N1CCC[C@@H]1c1ncnn1Cc1ccc(Cl)cc1` (some centres unmarked) [Compound 88] is 500 to 5000 nM; for `O=C(NC1CCCOc2ccccc21)N1CCC[C@@H]1c1ncnn1Cc1ccc(Cl)cc1` (some centres unmarked) [Compound 89] it is under 50 nM.
To `CC[C@H](NC(=O)N1CCC[C@@H]1c1ncnn1Cc1ccc(Cl)cc1)c1c(C)cc(C(F)(F)F)cc1C` [Compound 90] belongs 50 to 500 nM.
To `O=C(Nc1ccc2occc2c1)N1CCC[C@@H]1c1ncnn1Cc1ccc(Cl)cc1` [Compound 91] belongs 50 to 500 nM.
Take `Cc1nc([C@H]2CCCN2C(=O)Nc2ccc(C(F)(F)F)cc2)n(Cc2ccc(Cl)cc2)n1` [Compound 92]: the IC50 fell in the range of 500 to 5000 nM.
To `O=C(N[C@H]1CCCOc2ccc(Cl)cc21)N1CCC[C@@H]1c1ncnn1Cc1ccc(Cl)cc1` [Compound 93] belongs 50 to 500 nM.
To `Cc1nc([C@H]2CCCN2C(=O)Nc2c(C)cc(C(F)(F)F)cc2C)n(Cc2ccc(Cl)cc2)n1` [Compound 94] belongs 50 to 500 nM; to `CC[C@H](NC(=O)N1CCC[C@@H]1c1nc(C)nn1Cc1ccc(Cl)cc1)c1cc2ccccc2o1` [Compound 95], 50 to 500 nM.
Turning to `Cc1nc([C@H]2CCCN2C(=O)N[C@H]2CCOc3cc(C(F)(F)F)ccc32)n(Cc2ccc(Cl)cc2)n1` [Compound 96], the IC50 lay in the range of 500 to 5000 nM.
To `CC[C@H](NC(=O)N1CCC[C@@H]1c1nc(C)nn1Cc1ccc(Cl)cc1)c1c(C)cc(C(F)(F)F)cc1C` [Compound 97] belongs 500 to 5000 nM; to `O=C(NC1(c2ccc(C(F)(F)F)cc2)CC1)N1CCC[C@@H]1c1ncnn1Cc1ccc(Cl)cc1` [Compound 98], 50 to 500 nM.
With `CN1C(=O)COc2ccc(NC(=O)N3CCC[C@@H]3c3ncnn3Cc3ccc(Cl)cc3)cc21` [Compound 99], the IC50 fell in the range of 50 to 500 nM.
Turning to `O=C(NC1(c2ccccc2)CC1)N1CCC[C@@H]1c1ncnn1Cc1ccc(Cl)cc1` [Compound 100], the IC50 was in the range of 500 to 5000 nM.
With `Cc1cc(C(F)(F)F)cc(C)c1NC(=O)N1CCC[C@@H]1c1nncn1Cc1ccc(Cl)cc1` [Compound 101], the IC50 is under 50 nM.
To `Cc1cc(C(F)(F)F)cc(C)c1NC(=O)N1CCC[C@@H]1c1nnc(C)n1Cc1ccc(Cl)cc1` [Compound 102] belongs under 50 nM; to `O=C(N[C@H]1CCc2ccccc2C1)N1CCC[C@@H]1c1nncn1Cc1ccc(Cl)cc1` [Compound 103], under 50 nM.
In the case of `Cc1cc(C(F)(F)F)ccc1NC(=O)N1CCC[C@@H]1c1nncn1Cc1ccc(Cl)cc1` [Compound 104], the IC50 is under 50 nM.
The figure for `Cc1noc(-c2ccccc2)c1NC(=O)N1CCC[C@@H]1c1nncn1Cc1ccc(Cl)cc1` [Compound 105] is under 50 nM; for `Cc1cc(Cl)cc(C)c1NC(=O)N1CCC[C@@H]1c1nncn1Cc1ccc(Cl)cc1` [Compound 106] it is under 50 nM.
The figure for `O=C(N[C@H]1CCOc2cc(C(F)(F)F)ccc21)N1CCC[C@@H]1c1nncn1Cc1ccc(Cl)cc1` [Compound 107] is under 50 nM.
The figure for `O=C(Nc1ccc(C(F)(F)F)cc1)N1CCC[C@@H]1c1nncn1Cc1ccc(Cl)cc1` [Compound 108] is under 50 nM; for `Cc1onc(-c2ccccc2)c1NC(=O)N1CCC[C@@H]1c1nncn1Cc1ccc(Cl)cc1` [Compound 109] it is under 50 nM; for `O=C(NC1CCS(=O)(=O)c2ccccc21)N1CCC[C@@H]1c1nncn1Cc1ccc(Cl)cc1` (some centres unmarked) [Compound 110] it is under 50 nM.
`Cc1nnc([C@H]2CCCN2C(=O)N[C@H]2CCOc3cc(C(F)(F)F)ccc32)n1Cc1ccc(Cl)cc1` [Compound 111]: the IC50 is under 50 nM.
The figure for `Cc1nnc([C@H]2CCCN2C(=O)Nc2ccc(C(F)(F)F)cc2)n1Cc1ccc(Cl)cc1` [Compound 112] is 50 to 500 nM.
The figure for `Cc1nnc([C@H]2CCCN2C(=O)N[C@H]2CCOc3cc(Cl)ccc32)n1Cc1ccc(Cl)cc1` [Compound 113] is under 50 nM; for `O=C(N[C@H]1CCOc2cc(Cl)ccc21)N1CCC[C@@H]1c1nncn1Cc1ccc(Cl)cc1` [Compound 114] it is under 50 nM; for `Cc1cc(Cl)cc(C)c1NC(=O)N1CCC[C@@H]1c1nnc(C)n1Cc1ccc(Cl)cc1` [Compound 115] it is under 50 nM.
The figure for `CC[C@H](NC(=O)N1CCC[C@@H]1c1nncn1Cc1ccc(Cl)cc1)c1cc2ccccc2o1` [Compound 116] is under 50 nM.
As for `CC[C@H](NC(=O)N1CCC[C@@H]1c1nnc(C)n1Cc1ccc(Cl)cc1)c1cc2ccccc2o1` [Compound 117], the IC50 was under 50 nM.
The figure for `Cc1cc(C(F)(F)F)cc(C)c1NC(=O)N1CCC[C@@H]1c1nnc(C(C)C)n1Cc1ccc(Cl)cc1` [Compound 118] is 50 to 500 nM.
To `CC[C@H](NC(=O)N1CCC[C@@H]1c1nnc(C)n1Cc1ccc(Cl)cc1)c1c(C)cc(C(F)(F)F)cc1C` [Compound 119] belongs under 50 nM.
As for `CC[C@H](NC(=O)N1CCC[C@@H]1c1nncn1Cc1ccc(Cl)cc1)c1c(C)cc(C(F)(F)F)cc1C` [Compound 120], the IC50 was under 50 nM.
To `O=C(Nc1ccc2occc2c1)N1CCC[C@@H]1c1nncn1Cc1ccc(Cl)cc1` [Compound 121] belongs 50 to 500 nM.
